The results in this text go back to patent US9963660B2, “Method of cleaning with enhanced bacteriostatic action using a composition of alcohol and lactate esters” (Vertec Biosolvent, Inc., priority 2015, dated 2018).

Data set [1] has as its system Listeria Monocytogenis ATCC 19115. Briefly: MiniTox bacteriostatic (MIC) test in microtiter plates. It is filed as cell-based. Conditions: diluted to the same extent as the blend. The source says:
(§1) Methods to determine minimum inhibitory concentrations (MIC) of biocides or bacteriostatic agents that work in processing liquids to inhibit biological growth have been developed and optimized (U.S. Pat. No. 5,206,151). Typically, such MIC determinations involve (a) obtaining a known volume aliquot of the contaminated aqueous system and (b) adding thereto a known amount of an oxidation reduction indicator dye, which indicator dye is capable of reacting with dehydrogenase enzymes produced by the microbiological organisms, and also (c) adding sufficient nutrients capable of accelerating microbiological organism activity, thereby forming a reaction product between reducing enzymes and the oxidation-reduction indicator dye. Multiple aliquots of the indicator dye treated and nutrient treated, aqueous system are transferred to a microtitration plate containing multiple sample wells (d), each well containing but one of the multiple aliquots. (e) Serially diluted amounts of at least one antimicrobial agent is added to at least one column (or row) of these sample wells on the titration plate, provided that a single column (or row) is treated with only one antimicrobial agent, that at least one column (or row) is left untreated to thereby form a treated titration plate. The treated titration plate is incubated at a temperature essentially equivalent to the temperature of the contaminated aqueous system from which the aliquot was originally taken and maintained for a period of time sufficient to develop the change in the indicator dye color by the reaction of the indicator dye with reducing enzymes produced by nutrient acceleration of microbiological metabolism (f). The first change in color in dye relative to the untreated column is noted (g) to determine the minimum inhibitor concentration of antimicrobial agent that inhibits growth of microbiological organism contained in the contaminated aqueous system. Such a method is optimized under the Trademark of MiniToxTM and tests are routinely practiced and results provided by microbiological testing laboratories such as: The MicroStar Lab Ltd located at 130 Erick Street in Crystal Lake, Ill. 60014. […] This solution was kept as is at room temperature and hydrolysis of the ester continued. This solution was serially diluted with broth and media components for the MiniTox tests in microtiter plates. Two bacterial cultures Salmonella Choleraesuis ATCC 10708 and Listeria Monocytogenis ATCC 19115 were used for the studies. Bacteria of the Salmonella species are known pathogens that contaminate meat and vegetable types of food and Listeria species are known to contaminate milk and related foods.

Data set [2] deals with Salmonella Choleraesuis ATCC 10708. The description is as above. Format: cell-based. The following applies: diluted to the same extent as the blend.
Text: as §1

Data set [3] in a line: Peanut butter removal from coated metal mesh strips (cleaning/solvating action). Conditions: neat solvents, 40° C., 20 minutes dip, 90 minutes drying. From the text:
Peanut butter is a complex mixture of fats, carbohydrates and proteins that are emulsified in processing equipment under controlled conditions. Because of its composition that contains all the major food groups and because the product is made by controlled food processing methods, peanut butter was chosen for an initial cleaning examination. Commercially available […]® peanut butter made by Best Foods Company was used. Commercially available metal screen mesh (size 20 mesh) was cut into small (25 mm×75 mm), equal sized strips that were dipped into heated (about 50° C.) peanut butter and then drip dried in air. […] The strips were then dried under forced air at room temperature and their weights were measured periodically. After 90 minutes of drying the test results were evaluated to determine the comparative differences between the effects of the solvent compositions. Commercial grade of ethanol is typically denatured by small quantities of additives. Ethyl acetate is an approved denaturant for ethanol and it is non-toxic for food and biological related applications. In all of the examples for this invention the ethanol used was denatured by about 5% (w/w) ethyl acetate.

For data set [4] the following is noted: for Viscosity: @ 25 C. From the text:
Properties of solvents are often evaluated and expressed in measured and calculated values of solubility parameters and a few other physical constants.

Regarding `CCO` [Ethanol], the “Bacteriostatic activity alone, diluted to the same extent” value (shortened to “Bacteriostatic activity alone, diluted”) in data set [1] was “does not exhibit bacteriostatic activity”. The “Bacteriostatic activity alone, diluted” value in data set [2] is “does not exhibit bacteriostatic activity”. Further, the “Percent Removal” value in data set [3] was 20.4%. For the same compound, in data set [4], the “SPd (Disperse solubility parameter)” value worked out at 7.7, the “SPh (hydrogen bonding parameter)” value was determined as 9.5, the “SPo (Hildebrand solubility parameter)” value amounted to 13.0 and the “SPp (Polar solubility parameter)” value came to 4.3. In addition, in data set [4], the “Surface Tension” value came out at 22.2 mN/m and the Viscosity is given as 0.43 Cp.

As for `CCOC(=O)C(C)O` (stereo not drawn) [Ethyl lactate], the “Bacteriostatic activity alone, diluted” value in data set [1] is on record as “does not exhibit bacteriostatic activity”. The “Bacteriostatic activity alone, diluted” value in data set [2] is reported as “does not exhibit bacteriostatic activity”. Besides, in data set [3], the “Percent Removal” value is 7.3%. For the same compound, in data set [4], the “SPh (hydrogen bonding parameter)” value is recorded as 6.1, the “Surface Tension” value is on record as 28.6 mN/m and the Viscosity is on record as 2.41 Cp.
